Some test systems named below: PC-3 prostate; RXF 393 renal; SF-295 CNS; MALME-3M melanoma; SK-OV-3 ovarian; SN12C renal; LOX IMVI melanoma; SK-MEL-28 melanoma; K-562 leukemia; HL-60(TB) leukemia.
Holding throughout (assay): DTP human tumour cell line panel, 48 h

Values joined by “and” are separate entries in the source; they are usually repeats but may differ in a detail not shown here. Equal entries are not always repeated.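 Results reflect a 48-hour exposure of cells in 96-well plates to compound at five concentrations. Here, GI50 denotes the concentration required for 50% inhibition of growth. At the TGI there is no net growth.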

One may read the TGI as the concentration giving total growth inhibition. Regarding `COc1cc2c(c3oc4c(O)cccc4c(=O)c13)CC(C(C)(O)CCl)O2` (stereo not given), the TGI with PC-3 prostate stood at 7.76 µM; with RXF 393 renal it was 2.43 µM; with SF-295 CNS it was 24.1 µM; with MALME-3M melanoma, 8.12 µM; with SK-OV-3 ovarian, 17.9 µM; with SN12C renal, 2.4 µM. Further, the TGI with LOX IMVI melanoma was determined as 0.026 µM; in the experiment with SK-MEL-28 melanoma, 3.74 µM.

As a reminder, the GI50 is the concentration at which growth is held to half of that of the control. For `COc1ccccc1NC(=O)c1sc2ncn(CCOc3ccccc3)c(=O)c2c1C`, the GI50 in the experiment on PC-3 prostate was above 50 µM; with K-562 leukemia it was 0.761 µM; with SF-295 CNS, 1.69 µM; in the experiment on SK-OV-3 ovarian it was above 50 µM; in the experiment on SN12C renal, 17.2 µM; with LOX IMVI melanoma it was 1.52 µM. For the same molecule, the GI50 with HL-60(TB) leukemia was 1.93 µM. Moreover, the total growth inhibition concentration (TGI) in the experiment on PC-3 prostate is above 50 µM; with K-562 leukemia it was 4.39 µM; with SF-295 CNS it was above 50 µM; in the experiment on SK-OV-3 ovarian, above 50 µM; with SN12C renal, above 50 µM; with LOX IMVI melanoma it was above 50 µM. Also, the concentration for total growth inhibition (TGI) in the experiment on HL-60(TB) leukemia is above 50 µM.

With `ClC/C=C/CSc1ncnc2nc[nH]c12`, the GI50 with PC-3 prostate, with K-562 leukemia, in the experiment with RXF 393 renal, with SF-295 CNS, with MALME-3M melanoma and in the experiment on SK-OV-3 ovarian was above 100 µM in each case. Moreover, the GI50 in the experiment on SN12C renal, with LOX IMVI melanoma and in the experiment with SK-MEL-28 melanoma was above 100 µM throughout. The TGI in the experiment on PC-3 prostate, with K-562 leukemia, in the experiment on RXF 393 renal, in the experiment with SF-295 CNS, in the experiment with MALME-3M melanoma and in the experiment with SK-OV-3 ovarian was above 100 µM throughout. The TGI in the experiment with SN12C renal, in the experiment with LOX IMVI melanoma and with SK-MEL-28 melanoma was above 100 µM in each case.

For `COc1cc(C(=O)/C=C/c2c[nH]c3ccccc23)cc(OC)c1OC`, the concentration for 50% growth inhibition (GI50) was below 0.0212 µM in the experiment on PC-3 prostate; below 0.01 µM with K-562 leukemia; 0.0238 µM in the experiment with RXF 393 renal; 0.0381 µM with MALME-3M melanoma; 0.0438 µM in the experiment on SK-OV-3 ovarian; 0.0631 µM in the experiment on SN12C renal. In addition, the figures for the GI50 in the experiment with LOX IMVI melanoma, with SK-MEL-28 melanoma and in the experiment on HL-60(TB) leukemia were 0.0508 µM, 0.494 µM and below 0.0145 µM, respectively. Also, the TGI was 27.9 µM with PC-3 prostate; 12.5 µM in the experiment on K-562 leukemia; 34.7 µM in the experiment on RXF 393 renal; 18 µM with MALME-3M melanoma; 31.1 µM in the experiment with SK-OV-3 ovarian; 18.9 µM in the experiment with SN12C renal. Further, the results for the total growth inhibition concentration (TGI) with LOX IMVI melanoma, with SK-MEL-28 melanoma and in the experiment with HL-60(TB) leukemia were 16.1 µM, 41.9 µM and 0.0422 µM, respectively.

On to `CCOC(=O)Nc1cc2c(c(N)n1)N=C(c1ccc(Cl)cc1Cl)CN2`, for which the TGI turned out to be 14.9 µM in the experiment with PC-3 prostate; 11.9 µM in the experiment with K-562 leukemia; 0.0108 µM in the experiment on SF-295 CNS; 29.6 µM in the experiment on MALME-3M melanoma; 23.2 µM in the experiment with SK-OV-3 ovarian; 28.8 µM in the experiment with SN12C renal. The values for the TGI with LOX IMVI melanoma, in the experiment on SK-MEL-28 melanoma and with HL-60(TB) leukemia were 44.8 µM, 29.5 µM and 0.0585 µM, respectively.

Turning to `CC1=C(\C=C/C(C)=C/C=C/C(C)=C/C=C/C=C(C)\C=C\C=C(C)/C=C/C2=C(C)CCCC2(C)C)C(C)(C)CCC1`, the TGI in the experiment on PC-3 prostate, in the experiment with K-562 leukemia, in the experiment on RXF 393 renal, in the experiment on SF-295 CNS, in the experiment with MALME-3M melanoma and in the experiment on SK-OV-3 ovarian was above 100 µM in each case. The concentration for total growth inhibition (TGI) in the experiment on SN12C renal, in the experiment with LOX IMVI melanoma and in the experiment with SK-MEL-28 melanoma was above 100 µM throughout.

Turning to `COc1ccc2c(Cl)cc(NC(=S)Nc3ccccc3)nc2c1`, the concentration for total growth inhibition (TGI) in the experiment with PC-3 prostate is 66.4 µM; in the experiment with K-562 leukemia it was 60.2 µM; in the experiment on RXF 393 renal, 55.6 µM; in the experiment on SF-295 CNS it was above 100 µM; with MALME-3M melanoma, 69.4 µM; in the experiment on SK-OV-3 ovarian it was 61.1 µM. Also, the figures for the TGI in the experiment on SN12C renal, in the experiment with LOX IMVI melanoma and with SK-MEL-28 melanoma were above 100 µM, 44 µM and 97.9 µM, respectively.

Consider `CCCCCCCCCC(=O)Oc1ccc(/C(=C(/C)c2ccccc2)c2ccc(OCCN3CCCC3)cc2)cc1`, for which the GI50 in the experiment with PC-3 prostate is 8.28 µM; with RXF 393 renal, 6.95 µM; in the experiment on SF-295 CNS it was 7.93 µM; in the experiment with MALME-3M melanoma it was 7.76 µM; in the experiment with SK-OV-3 ovarian, 7.36 µM; in the experiment on SN12C renal, 9.15 µM. For the same molecule, the GI50 is 8.02 µM with LOX IMVI melanoma and 9.24 µM in the experiment on HL-60(TB) leukemia. Further, the concentration for total growth inhibition (TGI) with PC-3 prostate turned out to be 15.7 µM; with RXF 393 renal it was 14.1 µM; in the experiment on SF-295 CNS, 15.1 µM; in the experiment on MALME-3M melanoma, 15.7 µM; with SK-OV-3 ovarian it was 14.8 µM; in the experiment on SN12C renal it was 17.9 µM. Also, the results for the TGI in the experiment with LOX IMVI melanoma and with HL-60(TB) leukemia were 14.8 µM and 18.7 µM, respectively.

For the molecule `COc1cc([C@@H]2c3cc4c(cc3[C@@H](OC3OC5COC(C)OC5C(O)C3O)[C@H]3COC(=O)[C@H]23)OCO4)cc(OC)c1O` (stereo not given in full), the GI50 in the experiment on PC-3 prostate is 12.9 µM and 7.68 µM. Also, the concentration for total growth inhibition (TGI) was 72 µM [middle of 4 runs] in the experiment with MALME-3M melanoma; 62.3 µM and 500 µM and 120 µM in the experiment with SK-OV-3 ovarian; > 81.1 µM and 11.6 µM and 42.9 µM with LOX IMVI melanoma; 125 µM and 363 µM and 198 µM in the experiment with SK-MEL-28 melanoma.

As to `Cc1ccc2nc(CN(CCN(Cc3nc4ccc(C)cc4[nH]3)Cc3nc4ccc(C)cc4[nH]3)Cc3nc4ccc(C)cc4[nH]3)[nH]c2c1`, the GI50 in the experiment with PC-3 prostate is 1.85 µM; with K-562 leukemia it was 1.72 µM; in the experiment with SF-295 CNS, 1.55 µM; with MALME-3M melanoma, 1.47 µM; in the experiment with SK-OV-3 ovarian, 1.88 µM; in the experiment on SN12C renal it was 1.86 µM. The values for the GI50 in the experiment with LOX IMVI melanoma and in the experiment with SK-MEL-28 melanoma were 1.66 µM and 1.75 µM, respectively. Besides, the TGI in the experiment with PC-3 prostate came out at 3.51 µM; in the experiment on K-562 leukemia, 3.76 µM; in the experiment with SF-295 CNS it was 2.89 µM; in the experiment on MALME-3M melanoma, 2.89 µM; in the experiment on SK-OV-3 ovarian it was 3.35 µM; with SN12C renal it was 3.26 µM. Also, the TGI in the experiment with LOX IMVI melanoma came to 3.03 µM; in the experiment with SK-MEL-28 melanoma it was 3.15 µM.

Turning to `COc1cc2c3c(c4ccc(O)cc4c2cc1OC)[C@@H](O)[C@@H]1CCCN1C3`, the concentration for total growth inhibition (TGI) with PC-3 prostate was 0.175 µM; in the experiment with RXF 393 renal, 0.0029 µM; in the experiment on SF-295 CNS it was 0.0655 µM; in the experiment with MALME-3M melanoma it was 0.00314 µM; in the experiment with SN12C renal, 0.00932 µM; in the experiment with LOX IMVI melanoma, 0.00339 µM. Also, the results for the TGI with SK-MEL-28 melanoma and in the experiment with HL-60(TB) leukemia were below 0.001 µM and 4.74 µM, respectively.

(Values after PubChem BioAssay (NCI).)
